One series deals with T1, acetylcholinesterase (Mus musculus, UniProt P21836).
T1 construct: a mouse cerebral homogenate (as an acetylcholinesterase source); from tissue; host or cells: mouse cerebrum (homogenate)
Description: Inhibitory activity for acetylcholinesterase (method of Ellman et al.). It is filed as biochemical. Particulars: final concentration of the test compound 10 µg/ml; mouse cerebral homogenate; read-out: Inhibition (%). The procedure:
A test was conducted in accordance with the method of Ellman et al. [Biochem. Pharmacol., vol. 7, pp. 88-95, 1961].
That is, acetylthiocholine (as a substrate) was added to a phosphate buffer solution containing 5,5'-dithiobis-(2-nitrobenzoic acid) (DTNB), a test compound and a mouse cerebral homogenate (as an acetylcholinesterase source). The resulting mixture was incubated, and the amount of the resulting 5-thio-2-nitrobenzoic acid was photometrically measured at 412 nm.
The inhibitory activity for acetylcholinesterase of the test compound was expressed by the inhibition (%) when the final concentration of the test compound was 10 µg/ml.
(Ellman's reagent forms a yellow product with free thiols.)

The next series concerns ddY female mouse. As to the kind of experiment: Effect of test compound on hypoxia (antihypoxic activity). Type of series: in vivo. To be noted: po, 100 mg/kg orally, survival time relative to control, read-out: Antihypoxic activity (%). In short, it runs like this:
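Female ddY mice (5-6 weeks, n=10) received 100 mg/kg orally in saline. Time to death was measured and activity calculated versus saline-dosed controls.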

The subject of the next series is ddY male mice. Description: Acute toxicity. It is filed as in vivo, mouse. Particulars: 50 mg/kg intravenously, group of 3 ddY male mice. The text has this:
A test compound dissolved in physiological saline was intravenously administered to a group of 3 ddY male mice (5-6 weeks old) to examine the acute toxicity of the test compound.

The mark [1] stands for this setting: placed in chamber (4% oxygen, 96% nitrogen) after 1 hour from the administration.
Where [2] appears, read: 0.5 h, placed in chamber (4% oxygen, 96% nitrogen) after 30 minutes from the administration (values marked *).

Counter-ions that a name gives are not always drawn. Like-named read-outs stand apart in the source and are kept apart here.

T1 sequence (P21836 32-614): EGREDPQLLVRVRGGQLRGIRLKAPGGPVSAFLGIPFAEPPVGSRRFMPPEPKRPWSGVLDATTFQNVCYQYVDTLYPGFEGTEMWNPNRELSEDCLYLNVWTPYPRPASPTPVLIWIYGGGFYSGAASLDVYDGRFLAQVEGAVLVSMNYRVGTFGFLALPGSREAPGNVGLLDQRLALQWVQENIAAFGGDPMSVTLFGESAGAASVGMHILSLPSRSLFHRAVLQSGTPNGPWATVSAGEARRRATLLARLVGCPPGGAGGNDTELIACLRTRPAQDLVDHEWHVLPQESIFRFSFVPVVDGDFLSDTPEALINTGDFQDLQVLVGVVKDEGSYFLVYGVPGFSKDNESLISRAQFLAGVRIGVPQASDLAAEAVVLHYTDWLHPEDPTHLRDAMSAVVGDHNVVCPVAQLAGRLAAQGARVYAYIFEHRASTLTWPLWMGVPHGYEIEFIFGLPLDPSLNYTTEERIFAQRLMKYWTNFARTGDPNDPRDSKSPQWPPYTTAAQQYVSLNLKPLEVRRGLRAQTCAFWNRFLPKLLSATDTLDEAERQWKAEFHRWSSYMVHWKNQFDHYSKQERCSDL

The inhibition is how much of the control response was suppressed. As for `CN(C)CCOCC(O)c1ccc(Oc2ccccc2)cc1` (stereo not drawn) [Compound No. 54, 2-[2-(N,N-dimethylamino)ethoxy]-1-[4-(4-phenyloxy)phenyl]ethanol hydrochloride], the inhibition at 10 µg/mL at acetylcholinesterase was determined as 83%. In addition, the response vs control in vivo at 100 mg/kg with ddY female mouse (setting [1]) came out at 137%. Besides, the Acute toxicity entry in the series with ddY male mice was “no death case”.
In the same order, the values of `CN(C)CCOCC(O)c1ccc(Cl)c(Cl)c1` (stereo not drawn) [compound 34] are 26%, 221% and “no death case”.
For the molecule `CN(C)CCOCC(O)c1ccc(Oc2ccc(F)cc2)cc1` (stereo not drawn) [compound 67], at acetylcholinesterase, the inhibition at 10 µg/mL came out at 90%. The response vs control in vivo at 100 mg/kg with ddY female mouse (setting [2]) was 247%. The Acute toxicity entry with ddY male mice is listed as “no death case”.
Take `COc1ccc(Oc2ccc(C(O)COCCN(C)C)cc2)cc1` (stereo not drawn) [compound 71]: the inhibition at 10 µg/mL at acetylcholinesterase was 87%. In addition, the response vs control in vivo at 100 mg/kg with ddY female mouse (setting [1]) came to 147%. Besides, in the series with ddY male mice, the Acute toxicity entry is “no death case”.
Consider `CNc1nc(Cl)c(C(O)COCCN(C)C)cc1F` (stereo not drawn) [compound 377], for which the inhibition at 10 µg/mL at acetylcholinesterase was found to be 23%. In addition, the response vs control in vivo at 100 mg/kg with ddY female mouse (setting [2]) was 221%. Besides, the Acute toxicity entry in the series on ddY male mice is “no death case”.

The values above are taken from patent publication EP0589484A1, “1,2-Ethanediol derivative and salt thereof, process for producing the same, and cerebral function-improving agent comprising the same” (TOYAMA CHEMICAL CO., LTD., priority 1989, dated 1990).
